According to ChEMBL document CHEMBL1201862, “PubChem BioAssay data set” (2004):
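Growth conditions: 96-well plates. Treatment: test compound, 48 hours, 5 concentrations. Analysis: linear interpolation between bracketing concentrations; unreached endpoints set to highest concentration. GI50 is the concentration that inhibits growth by half.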 Activity calls are given as the source filed them. No stated cut-off is given here; in the data, active = GI50 up to about 1.1 µM and inactive = higher.

How the values were obtained:
Assay in all cases: inhibition of tumour cell growth, NCI panel, 48 h
A549 = tested on: A549
BT-549 = tested on: BT-549
CAKI-1 = tested on: CAKI-1
DU-145 = tested on: DU-145
HCT-116 = tested on: HCT-116
HCT-15 = tested on: HCT-15
HOP-62 = tested on: HOP-62
IGROV-1 = tested on: IGROV-1
K562 = tested on: K562
LOX IMVI = tested on: LOX IMVI
MCF7 = tested on: MCF7
OVCAR-3 = tested on: OVCAR-3
PC-3 = tested on: PC-3
RXF 393 = tested on: RXF 393
SK-MEL-2 = tested on: SK-MEL-2
TK-10 = tested on: TK-10
U-251 = tested on: U-251
UACC-257 = tested on: UACC-257
SF-539 = tested on: SF-539

SMILES | GI50 (A549) | GI50 (BT-549) | GI50 (CAKI-1) | GI50 (DU-145) | GI50 (HCT-116) | GI50 (HCT-15) | GI50 (HOP-62) | GI50 (IGROV-1) | GI50 (K562) | GI50 (LOX IMVI) | GI50 (MCF7) | GI50 (OVCAR-3) | GI50 (PC-3) | GI50 (RXF 393) | GI50 (SK-MEL-2) | GI50 (TK-10) | GI50 (U-251) | GI50 (UACC-257) | GI50 (SF-539)
COc1cc(/C=C2\N=C(c3ccccc3)N(c3nc4c(OC)ccc(OC)c4s3)C2=O)cc(OC)c1OC | > 100 µM (inactive) | > 100 µM (inactive) | > 100 µM (inactive) | > 100 µM (inactive) | 66.8 µM (inactive) | 95.7 µM | > 100 µM (inactive) | > 100 µM (inactive) | 34.8 µM (inactive) | 51.8 µM (inactive) | 34.3 µM (inactive) | > 100 µM (inactive) | 59.7 µM (inactive) | 85.1 µM (inactive) | > 100 µM (inactive) | > 100 µM (inactive) | 56.1 µM (inactive) | 55.6 µM (inactive) | –
O=C(CCCCCCCCC(=O)N1C(=O)CC(=O)N(c2cccc(Cl)c2)C1=S)N1C(=O)CC(=O)N(c2cccc(Cl)c2)C1=S | 32.5 µM (inactive) | 44.1 µM (inactive) | 20.5 µM (inactive) | 89.7 µM (inactive) | 34.2 µM (inactive) | 43.5 µM | 43.2 µM (inactive) | – | – | 47.1 µM (inactive) | 34.3 µM (inactive) | 25.2 µM (inactive) | 26.6 µM (inactive) | 44.9 µM (inactive) | 37.7 µM (inactive) | 56.9 µM (inactive) | 35.6 µM (inactive) | 45 µM (inactive) | –
C/C(=N\NC(=S)NCCCNC(=S)N/N=C(\C)c1ccccn1)c1ccccn1 | 3.48 µM (inactive) | 3.13 µM (inactive) | – | 2.26 µM (inactive) | 2.88 µM (inactive) | 1.3 µM | 1.94 µM (inactive) | 3.9 µM (inactive) | 4.06 µM (inactive) | 2.81 µM (inactive) | 3.34 µM (inactive) | 2.95 µM (inactive) | 9.1 µM (inactive) | 3.03 µM (inactive) | 2.06 µM (inactive) | 0.619 µM (active) | 2.77 µM (inactive) | 2.75 µM (inactive) | 2.42 µM (inactive)
N#Cc1ccc(N2CCOCC2)cc1 | > 100 µM (inactive) | 24.9 µM (inactive) | > 100 µM (inactive) | > 100 µM (inactive) | > 100 µM (inactive) | > 100 µM | > 100 µM (inactive) | > 100 µM (inactive) | – | 23 µM (inactive) | > 100 µM (inactive) | > 100 µM (inactive) | > 100 µM (inactive) | > 100 µM (inactive) | > 100 µM (inactive) | > 100 µM (inactive) | > 100 µM (inactive) | > 100 µM (inactive) | > 100 µM (inactive)
CC(=O)O[C@H]1CC2C(C3CCC(C(C)CCC(=O)O)[C@]31C)[C@H](OC(C)=O)C[C@@H]1CC3(CC[C@]21C)OOC1(CC[C@]2(C)C4C[C@H](OC(C)=O)[C@]5(C)C(C(C)CCC(=O)O)CCC5C4[C@H](OC(C)=O)C[C@@H]2C1)OO3 (stereo partly specified) | 1.27 µM (inactive) | 1.56 µM (inactive) | 2.19 µM (inactive) | 1.2 µM (inactive) | 1.75 µM (inactive) | 2.22 µM | 1.83 µM (inactive) | 2.12 µM (inactive) | 2.44 µM (inactive) | 1.63 µM (inactive) | 2.7 µM (inactive) | 1.8 µM (inactive) | 1.69 µM (inactive) | 1.36 µM (inactive) | 1.77 µM (inactive) | 2.75 µM (inactive) | 1.28 µM (inactive) | 2.15 µM (inactive) | –
COC1/C=C/C(C)C(O)CC(O)/C=C/C(C)C(C(C)C(OC)C(C)CCC(=O)C(C)C(C/C=C/N(C)C=O)OC)OC(=O)/C=C/C=C(\C)CC(OC)CC2=CC(=O)O[C@@H](C(C)C(OC)C1)[C@H]2O (stereo partly specified) | 0.00507 µM (active) | 0.0311 µM (active) | < 0.005 µM (active) | 0.0221 µM (active) | < 0.005 µM (active) | < 0.005 µM | 0.00515 µM (active) | 0.0113 µM (active) | – | < 0.005 µM (active) | 0.00522 µM (active) | < 0.005 µM (active) | < 0.005 µM (active) | < 0.005 µM (active) | – | 0.00542 µM (active) | < 0.005 µM (active) | 0.0103 µM (active) | < 0.005 µM (active)
Cc1cc(=O)oc2cc(SC(=O)N(C)C)ccc12 | > 100 µM (inactive) | > 100 µM (inactive) | > 100 µM (inactive) | > 100 µM (inactive) | > 100 µM (inactive) | > 100 µM | > 100 µM (inactive) | > 100 µM (inactive) | – | > 100 µM (inactive) | > 100 µM (inactive) | > 100 µM (inactive) | > 100 µM (inactive) | > 100 µM (inactive) | > 100 µM (inactive) | > 100 µM (inactive) | > 100 µM (inactive) | > 100 µM (inactive) | > 100 µM (inactive)
O=C1c2ccccc2C(C2c3ccccc3C(=O)c3cc(Br)ccc32)c2ccc(Br)cc21 (stereo unspecified) | > 100 µM (inactive) | > 100 µM (inactive) | > 100 µM (inactive) | > 100 µM (inactive) | 59.2 µM (inactive) | > 100 µM | > 100 µM (inactive) | > 100 µM (inactive) | 31.8 µM (inactive) | > 100 µM (inactive) | > 100 µM (inactive) | > 100 µM (inactive) | > 100 µM (inactive) | > 100 µM (inactive) | – | > 100 µM (inactive) | > 100 µM (inactive) | > 100 µM (inactive) | –
C1=NN2C(c3ccccc3)=NOC2C2C(c3ccccc3)=NOC12 (stereo unspecified) | > 100 µM (inactive) | > 100 µM (inactive) | > 100 µM (inactive) | > 100 µM (inactive) | > 100 µM (inactive) | > 100 µM | > 100 µM (inactive) | > 100 µM (inactive) | – | > 100 µM (inactive) | > 100 µM (inactive) | > 100 µM (inactive) | > 100 µM (inactive) | > 100 µM (inactive) | – | > 100 µM (inactive) | – | > 100 µM (inactive) | > 100 µM (inactive)
CN(Cc1cnc2nc(N)nc(N)c2n1)c1ccc(C(=O)NC23CC4CC(CC(C4)C2)C3)cc1 | – | 11.8 µM (inactive) | 12 µM (inactive) | 10.7 µM (inactive) | 4.01 µM (inactive) | 4.71 µM | 12.6 µM (inactive) | 5.9 µM (inactive) | 1.06 µM (active) | 5.48 µM (inactive) | 10.9 µM (inactive) | 16.9 µM (inactive) | 4.58 µM (inactive) | 17.1 µM (inactive) | 11.5 µM (inactive) | 14.5 µM (inactive) | 12 µM (inactive) | 10.9 µM (inactive) | –
CN(C)c1n/c(=N/Cc2ccncc2)ss1 | > 10 µM (inactive) | 19.8 µM (inactive) | 31.5 µM (inactive) | > 10 µM (inactive) | 20.5 µM (inactive) | 45 µM | > 10 µM (inactive) | > 75.5 µM (inactive) | 17 µM (inactive) | 16.4 µM (inactive) | 61 µM (inactive) | > 48.6 µM (inactive) | 26.1 µM (inactive) | 31.8 µM (inactive) | – | > 66.2 µM (inactive) | 17.9 µM (inactive) | > 39.7 µM (inactive) | > 46.9 µM (inactive)
